Data on 15 compounds can be found in patent US20250011288A1 (BRISTOL-MYERS SQUIBB COMPANY, priority 2021, published 2025).

SMILES strings stand for the structures.

This assay deals with T1, human RXFP1 (Homo sapiens, UniProt Q9HBX9).
T1 construct: expressed in transfected cells
T1 sequence (Q9HBX9 1-757): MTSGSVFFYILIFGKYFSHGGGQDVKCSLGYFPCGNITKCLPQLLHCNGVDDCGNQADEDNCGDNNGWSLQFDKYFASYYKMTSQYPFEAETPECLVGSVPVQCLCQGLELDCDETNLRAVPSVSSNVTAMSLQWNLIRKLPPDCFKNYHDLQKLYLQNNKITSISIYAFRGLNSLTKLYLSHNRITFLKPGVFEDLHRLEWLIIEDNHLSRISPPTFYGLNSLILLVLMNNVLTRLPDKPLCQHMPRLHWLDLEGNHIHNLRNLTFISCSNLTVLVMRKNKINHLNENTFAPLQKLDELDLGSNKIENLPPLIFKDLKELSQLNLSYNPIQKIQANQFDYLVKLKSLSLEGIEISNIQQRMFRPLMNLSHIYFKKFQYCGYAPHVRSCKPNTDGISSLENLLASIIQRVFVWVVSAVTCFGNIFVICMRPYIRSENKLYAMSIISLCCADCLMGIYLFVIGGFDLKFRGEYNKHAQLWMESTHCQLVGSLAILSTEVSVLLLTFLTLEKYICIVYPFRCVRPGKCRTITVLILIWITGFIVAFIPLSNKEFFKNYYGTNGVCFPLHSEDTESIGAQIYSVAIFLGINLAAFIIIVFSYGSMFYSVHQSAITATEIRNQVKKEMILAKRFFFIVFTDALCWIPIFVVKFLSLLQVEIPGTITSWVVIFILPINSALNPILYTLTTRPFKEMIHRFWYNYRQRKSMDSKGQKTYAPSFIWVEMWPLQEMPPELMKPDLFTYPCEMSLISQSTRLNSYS
Kind of assay: human RXFP1 (hRXFP1) HEK293 cAMP assay (HTRF). The note with it: HEK293 cells stably expressing human RXFP1, 30 min at room temperature. The format is cell-based. In outline:
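Intracellular cAMP was quantified by HTRF after a 30 min room-temperature exposure of hRXFP1-HEK293 cells (1500/well) to compound at 0.010 nM–50 µM final, 2% DMSO. Buffer was HBSS with 20 mM HEPES, 0.05% BSA and 0.5 mM IBMX; values came from a 4-parameter logistic fit.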
On the technique in general: Cyclic AMP is a second messenger, typically raised through Gs and lowered through Gi signalling.

Usually EC50 stands for the concentration needed to bring the measured effect to its halfway point.

`COc1ccc(-c2cc([C@H](OC(=O)Nc3ccccc3)C(F)(F)F)ccc2F)nc1C(=O)N[C@@H]1C2CCC(/C2=C/C(F)(F)F)[C@@H]1C(=O)Nc1ccc(F)c(C(F)(F)F)c1` (stereo partly drawn) [Example 39, (1S)-2,2,2-trifluoro-1-14-fluoro-3-(6-{[(2R,3S,72)-3-{[4-fluoro-3-(trifluoromethyl)phenyl]carbamoyl}-7-(2,2,2-trifluoro-ethylidene)bicyclo[2. 2.1]heptan-2-yl]carbamoyl}-5-methoxypyridin-2-yl)phenyl]ethyl N-phenylcarbamate] gave an EC50 of 110 nM.

The compound `O=C(O)c1ccc(F)c(-c2cnc(OCCO)c(C(=O)N[C@H]3[C@@H](C(=O)Nc4ccc(F)c(C(F)(F)F)c4)[C@H]4CC[C@@H]3/C4=C\C(F)(F)F)c2)c1` [Example 40, 4-fluoro-3-(5-(((1R,2R,3S,4R,Z)-3-((4-fluoro-3-(trifluoromethyl)phenyl)carbamoyl)-7-(2,2,2-trifluoroethylidene)bicyclo[2.2.1]heptan-2-yl)carbamoyl)-6-(2-hydroxyethoxy)pyridin-3-yl)benzoic acid] returned a 50% effective concentration (EC50) of 39 nM. `O=C(N[C@@H]1C2CCC(/C2=C/C(F)(F)F)[C@@H]1C(=O)Nc1ccc(F)c(C(F)(F)F)c1)c1cc(Br)cnc1OCCO` (stereo partly drawn) [Example 41, 5-bromo-N-[(2R,3S,7Z)-3-{[4-fluoro-3-(trifluoromethyl)phenyl]carbamoyl}-7-(2,2,2-trifluoroethylidene)bicyclo[2.2.1]heptan-2-yl]-2-(2-hydroxyethoxy) pyridine-3-carboxamide] gave a concentration for a half-maximal effect (EC50) of 770 nM. `O=C(Nc1ccccc1)O[C@@H](c1ccc(F)c(-c2cnc(OCCO)c(C(=O)N[C@H]3[C@@H](C(=O)Nc4ccc(F)c(C(F)(F)F)c4)[C@H]4CC[C@@H]3/C4=C\C(F)(F)F)c2)c1)C(F)(F)F` [Example 42, (S)-2,2,2-trifluoro-1-(4-fluoro-3-(5-(((1R,2R,3S,4R,Z)-3-((4-fluoro-3-(trifluoromethyl)phenyl)carbamoyl)-7-(2,2,2-trifluoroethylidene)bicyclo[2.2.1]heptan-2-yl)carbamoyl)-6-(2-hydroxyethoxy)pyridin-3-yl)phenyl)ethyl phenylcarbamate] had a concentration giving a half-maximal response (EC50) of 8.1 nM. For `O=C(NC1CCC1)O[C@@H](c1ccc(F)c(-c2cnc(OCCO)c(C(=O)N[C@@H]3C4CCC(/C4=C/C(F)(F)F)[C@@H]3C(=O)Nc3ccc(F)c(C(F)(F)F)c3)c2)c1)C(F)(F)F` (stereo partly drawn) [Example 43, (IS)-2,2,2-trifluoro-1-14-fluoro-3-(5-{[(2R,3S,7Z)-3-{[4-fluoro-3-(trifluoromethyl)phenyl]carbamoyl}-7-(2,2,2-trifluoroethylidene)bicyclo[2. 2.1]heptan-2-yl]carbamoyl}-6-(2-hydroxyethoxy)pyridin-3-yl)phenyl]ethyl N-cyclobutylcarbamate] the value was 9.4 nM.

With `O=C(O)c1ccc(F)c(-c2cc(C(=O)N[C@@H]3C4CCC(/C4=C/C(F)(F)F)[C@@H]3C(=O)Nc3ccc(F)c(C(F)(F)F)c3)c(OCCO)cn2)c1` (stereo partly drawn) [Example 44, 4-Fluoro-3-(4-{[(2R,3S,7Z)-3-{[4-fluoro-3-(trifluoromethyl)phenyl]carbamoyl}-7-(2,2,2-trifluoroethylidene)bicyclo[2.2.1]heptan-2-yl]carbamoyl}-5-(2-hydroxyethoxy)pyridin-2-yl)benzoic acid], the midpoint of the response, the EC50, lay at 360 nM. The compound `O=C(N[C@@H]1C2CCC(/C2=C/C(F)(F)F)[C@@H]1C(=O)Nc1ccc(F)c(C(F)(F)F)c1)c1cc(Br)ncc1OCCO` (stereo partly drawn) [Example 45, 2-Bromo-N-[(2R,3S,7Z)-3-{[4-fluoro-3-(trifluoromethyl)phenyl]carbamoyl}-7-(2,2,2-trifluoroethylidene)bicyclo[2. 2.1]heptan-2-yl]-5-(2-hydroxyethoxy) pyridine-4-carboxamide] returned a 50% effective concentration (EC50) of 560 nM. For `O=C(NC1CCC1)O[C@@H](c1ccc(F)c(-c2cc(C(=O)N[C@@H]3C4CCC(/C4=C/C(F)(F)F)[C@@H]3C(=O)Nc3ccc(F)c(C(F)(F)F)c3)c(OCCO)cn2)c1)C(F)(F)F` (stereo partly drawn) [Example 46, (1S)-2,2,2-trifluoro-1-[4-fluoro-3-(4-{[(2R,3S,7Z)-3-{[4-fluoro-3-(trifluoromethyl)phenyl]carbamoyl}-7-(2,2,2-trifluoroethylidene)bicyclo[2. 2.1]heptan-2-yl]carbamoyl}-5-(2-hydroxyethoxy)pyridin-2-yl)phenyl]ethyl N-cyclobutyl-carbamate], the 50% effective concentration (EC50) worked out at 65 nM. The compound `O=C(O)c1ccc(F)c(-c2cnc(OCCO)c(C(=O)N[C@@H]3C4CCC(/C4=C/C(F)(F)F)[C@@H]3C(=O)Nc3ccc(F)c(C(F)(F)F)c3)n2)c1` (stereo partly drawn) [Example 47, 4-Fluoro-3-(6-{[(2R,3S,7Z)-3-{[4-fluoro-3-(trifluoromethyl)phenyl]carbamoyl}-7-(2,2,2-trifluoroethylidene)bicyclo[2.2.1]heptan-2-yl]carbamoyl}-5-(2-hydroxyethoxy)pyrazin-2-yl)benzoic acid] came in with a concentration for a half-maximal effect (EC50) of 200 nM. For `O=C(N[C@@H]1C2CCC(/C2=C/C(F)(F)F)[C@@H]1C(=O)Nc1ccc(F)c(C(F)(F)F)c1)c1nc(Br)cnc1OCCO` (stereo partly drawn) [Example 48] the value was 880 nM; for `COc1ncc(C#CCO)cc1C(=O)N[C@@H]1C2CCC(/C2=C/C(F)(F)F)[C@@H]1C(=O)Nc1ccc(F)c(C(F)(F)F)c1` (stereo partly drawn) [Example 49, N-[(2R,3S,7Z)-3-{[4-fluoro-3-(trifluoromethyl)phenyl]carbamoyl}-7-(2,2,2-trifluoroethylidene)bicyclo[2.2.1]heptan-2-yl]-5-(3-hydroxyprop-1-yn-1-yl)-2-methoxypyridine-3-carboxamide], 153 nM. The compound `COc1ncc(CCCO)cc1C(=O)N[C@@H]1C2CCC(/C2=C/C(F)(F)F)[C@@H]1C(=O)Nc1ccc(F)c(C(F)(F)F)c1` (stereo partly drawn) [Example 50, N-[(2R,3S,7Z)-3-{[4-fluoro-3-(trifluoromethyl)phenyl]carbamoyl}-7-(2,2,2-trifluoroethylidene)bicyclo[2.2.1]heptan-2-yl]-5-(3-hydroxypropyl)-2-methoxypyridine-3-carboxamide] came in with an EC50 of 129 nM. Compound `CCCc1cnc(OC)c(C(=O)N[C@@H]2C3CCC(/C3=C/C(F)(F)F)[C@@H]2C(=O)Nc2ccc(F)c(C(F)(F)F)c2)c1` (stereo partly drawn) [Example 51, N-[(2R,3S,7Z)-3-{[4-fluoro-3-(trifluoromethyl)phenyl]carbamoyl}-7-(2,2,2-trifluoroethylidene)bicyclo[2.2.1]heptan-2-yl]-2-methoxy-5-propylpyridine-3-carboxamide] returned an EC50 of 1300 nM. Regarding `CCCc1cnc(OC)c(C(=O)N[C@@H]2C3CCC(/C3=C/C(F)(F)F)[C@@H]2C(=O)Nc2ccc(F)c(C(F)(F)F)c2)n1` (stereo partly drawn) [Example 52, N-[(2R,3S,7Z)-3-{[4-fluoro-3-(trifluoromethyl)phenyl]carbamoyl}-7-(2,2,2-trifluoroethylidene)bicyclo[2.2.1]heptan-2-yl]-3-methoxy-6-propylpyrazine-2-carboxamide], the concentration giving a half-maximal response (EC50) is 1300 nM. Regarding `COc1nn(-c2cccc(C(=O)O)c2)cc1C(=O)N[C@@H]1C2CCC(/C2=C/C(F)(F)F)[C@@H]1C(=O)Nc1ccc(F)c(C(F)(F)F)c1` (stereo partly drawn) [Example 53, 3-(4-{[(2R,3S,7Z)-3-{[4-fluoro-3-(trifluoromethyl)phenyl]carbamoyl}-7-(2,2,2-trifluoroethylidene)bicyclo[2.2.1]heptan-2-yl]carbamoyl}-3-methoxy-1H-pyrazol-1-yl)benzoic acid], the half-maximal effective concentration (EC50) turned out to be 1600 nM.
